According to patent publication US20230060425A1, “FUSED BICYCLIC HETEROCYCLE DERIVATIVES AS PESTICIDES” (Bayer Aktiengesellschaft, priority 2019, published 2023):
Like-named read-outs stand apart in the source and are kept apart here.

Experiments:
Format in all cases: in vivo
Diabrotica balteata = Diabrotica balteata spray test; details: 168 h, application rate 160 μg/cavity (μg/well), wheat grains, after 7 days, read-out: efficacy
Method: Diabrotica balteata—Spray Test
(§1) Solvent: • 78 parts by weight of acetone • 1.5 parts by weight of dimethylformamide
(§2) Emulsifier: alkylaryl polyglycol ether
(§3) To produce a suitable active compound preparation, 1 part by weight of active compound is dissolved using the stated parts by weight of solvent and made up with water containing an emulsifier concentration of 1000 ppm until the desired concentration is attained. To produce further test concentrations, the formulation is diluted with emulsifier-containing water.
Pre-swollen wheat grains (Triticum aestivum) are incubated in a multiwell plate filled with agar and a little water for one day (5 seed grains per well). The germinated wheat grains are sprayed with an active compound preparation of the desired concentration. Subsequently, each cavity is infected with 10-20 beetle larvae of Diabrotica balteata.
After 7 days, the efficacy in % is determined. 100% means that all wheat plants have grown as in the untreated, uninfected control; 0% means that no wheat plant has grown.

Myzus persicae [1] = assay: Myzus persicae oral test; details: 120 h, read-out: efficacy
Method: Solvent: 100 parts by weight of acetone
To produce a suitable preparation of active compound, 1 part by weight of active compound is dissolved using the specified parts by weight of solvent and made up with water until the desired concentration is attained.
50 μl of the active compound preparation are transferred into microtitre plates and made up to a final volume of 200 μl with 150 μl of IPL41 insect medium (33%+15% sugar). Subsequently, the plates are sealed with parafilm, which a mixed population of green peach aphids (Myzus persicae) within a second microtitre plate is able to puncture and imbibe the solution through it.
(§4) After 5 days, the efficacy in % is determined. 100% means that all the aphids have been killed; 0% means that no aphids have been killed.

Myzus persicae [2] = assay: Myzus persicae spray test; details: foliar, 120 h, application rate 100 g/ha, Chinese cabbage leaf discs, after 5 days, read-out: efficacy
Method: Myzus persicae—Spray Test
as §1, §2, §3
Discs of Chinese cabbage leaves (Brassica pekinensis) infested by all stages of the green peach aphid (Myzus persicae) are sprayed with an active compound formulation of the desired concentration.
as §4

Spodoptera frugiperda = Spodoptera frugiperda spray test; details: foliar, 168 h, read-out: efficacy
Method: Spodoptera frugiperda—Spray Test
(§5) Solvent: • 78.0 parts by weight of acetone • 1.5 parts by weight of dimethylformamide
as §2
To produce further test concentrations, the formulation is diluted with emulsifier-containing water.
After 7 days, the efficacy in % is determined. 100% means that all the caterpillars have been killed; 0% means that no caterpillar has been killed.

Phaedon cochleariae = Phaedon cochleariae spray test; details: foliar, 168 h, read-out: efficacy
Method: Phaedon cochleariae—Spray Test
as §5, §2, §3
Discs of Chinese cabbage leaves (Brassica pekinensis) are sprayed with an active compound formulation of the desired concentration and, after drying, populated with larvae of the mustard beetle (Phaedon cochleariae).
After 7 days, the efficacy in % is determined. 100% means that all the beetle larvae have been killed; 0% means that no beetle larvae have been killed.

Ctenocephalides felis = Ctenocephalides felis oral test; details: 48 h, application rate 100 ppm, in citrated cattle blood, after 2 days, read-out: efficacy (kill in %)
Method: Ctenocephalides felis—Oral Test
Solvent: Dimethyl sulfoxide
To produce a suitable active compound formulation, 10 mg of active compound are mixed with 0.5 ml of dimethyl sulfoxide. Dilution with citrated cattle blood gives the desired concentration.
About 20 unfed adult cat fleas (Ctenocephalides felis) are placed into a chamber which is closed at the top and bottom with gauze. A metal cylinder whose bottom end is closed with parafilm is placed onto the chamber. The cylinder contains the blood/active compound formulation, which can be imbibed by the fleas through the parafilm membrane.
After 2 days, the kill in % is determined. 100% means that all of the fleas have been killed; 0% means that none of the fleas have been killed.

[3] = application rate 4 ppm, after 5 days
[4] = application rate 100 g/ha, maize leaf discs, after 7 days
[5] = application rate 100 g/ha, Chinese cabbage leaf discs, after 7 days

Compound	pest or weed control at 160 µg/well (Diabrotica balteata) [%]	pest or weed control at 4 ppm (Myzus persicae [1]; [3]) [%]	pest or weed control at 100 g/ha (Myzus persicae [2]) [%]	pest or weed control at 100 g/ha (Spodoptera frugiperda; [4]) [%]	pest or weed control at 100 g/ha (Phaedon cochleariae; [5]) [%]	pest or weed control at 100 ppm (Ctenocephalides felis) [%]	pest or weed control at 4 ppm (Myzus persicae [1]) [%]	pest or weed control at 100 g/ha (Phaedon cochleariae; in Brassica rapa) [%]	pest or weed control at 100 g/ha (Spodoptera frugiperda; in Zea mays) [%]
CCS(=O)(=O)c1c(-c2nc3cc(C(F)(F)F)nnc3n2C)ncc2ccc(C(F)(F)F)cc12 [Example I-045]	100	100	100	100	–	–	–	–	–
CCS(=O)(=O)c1c(-c2nc3cc(C(F)(F)C(F)(F)F)cnc3n2C)ncc2cc(OCC(F)(F)F)ccc12 [Example I-048]	100	–	–	100	–	–	–	–	–
CCS(=O)(=O)c1c(-c2nc3cc(C(F)(F)F)cnc3n2C)ncc2cc(SCC(F)(F)F)ccc12 [Example I-002]	–	100	90	–	100	–	–	–	–
CCS(=O)(=O)c1c(-c2nc3cc(OC(F)(F)F)cnc3n2C)ncc2c(C(F)(F)F)cccc12 [Example I-024]	–	100	90	100	100	80	–	–	–
CCS(=O)(=O)c1c(-c2nc3cc(C(F)(F)F)cnc3n2C)ncc2cc(C#N)ccc12 [Example I-001]	–	100	90	100	100	–	–	–	–
CCS(=O)(=O)c1c(-c2nc3cc(C(F)(F)C(F)(F)F)nnc3n2C)ncc2cc(C#N)ccc12 [Example I-051]	100	100	–	100	–	–	–	–	–
CCS(=O)(=O)c1c(-c2nc3cc(S(=O)(=O)C(F)(F)F)cnc3n2C)ncc2cc(Br)ccc12 [Example I-016]	100	100	–	100	–	–	–	–	–
CCS(=O)(=O)c1c(-c2nc3cc(C(F)(F)F)cnc3n2C)ncc2ccc(C(F)(F)F)cc12 [Example I-021]	–	100	–	100	100	–	–	–	–
CCS(=O)(=O)c1c(-c2nc3cc(C(F)(F)F)cnc3n2C)ncc2cc(NC(C)=O)ccc12 [Example I-035]	–	100	90	–	100	–	–	–	–
CCS(=O)(=O)c1c(-c2nc3cc(C(F)(F)C(F)(F)F)ncc3n2C)ncc2c(Br)cccc12 [Example I-019]	100	100	–	100	–	–	–	–	–
CCS(=O)(=O)c1c(-c2nc3cc(C(F)(F)C(F)(F)F)cnc3n2C)ncc2c(Cl)cccc12 [Example I-031]	100	100	–	100	–	–	–	–	–
CCS(=O)(=O)c1c(-c2nc3cc(C(F)(F)F)cnc3n2C)ncc2cc(OC)ccc12 [Example I-033]	–	100	–	100	–	–	–	–	–
CCS(=O)(=O)c1c(-c2nc3cc(C(F)(F)C(F)(F)F)nnc3n2C)ncc2c(Cl)cccc12 [Example I-052]	100	100	–	100	–	–	–	–	–
CCS(=O)(=O)c1c(-c2nc3cc(C(F)(F)C(F)(F)F)nnc3n2C)ncc2cc(Br)ccc12 [Example I-043]	100	100	90	100	–	–	–	–	–
CCS(=O)(=O)c1c(-c2nc3cc(C(F)(F)F)cnc3n2C)ncc2cc(NC(=O)OC)ccc12 [Example I-022]	–	–	–	–	–	–	100	100	100
